Assay results reported in patent US20100075978A1, “SULFONAMIDE DERIVATIVES AS BRADYKININ ANTAGONISTS” (priority 2006, published 2010).
Structures can show the parent of a compound that is named as a salt.

Legend:
[1] = molecular target: T1, recombinant human B1 receptors (Homo sapiens, UniProt P46663); test: Functional assay: cytosolic calcium ion concentration measured with plate reader fluorimeter in CHO-B1 cells, agonist LysDABK; type: cell-based; conditions: CHO-B1 cells, LysDABK at EC80, [Ca2+]i; read-out: B1 func.
T1 construct: host or cells: CHO (CHO-B1)
T1 sequence (P46663 1-353): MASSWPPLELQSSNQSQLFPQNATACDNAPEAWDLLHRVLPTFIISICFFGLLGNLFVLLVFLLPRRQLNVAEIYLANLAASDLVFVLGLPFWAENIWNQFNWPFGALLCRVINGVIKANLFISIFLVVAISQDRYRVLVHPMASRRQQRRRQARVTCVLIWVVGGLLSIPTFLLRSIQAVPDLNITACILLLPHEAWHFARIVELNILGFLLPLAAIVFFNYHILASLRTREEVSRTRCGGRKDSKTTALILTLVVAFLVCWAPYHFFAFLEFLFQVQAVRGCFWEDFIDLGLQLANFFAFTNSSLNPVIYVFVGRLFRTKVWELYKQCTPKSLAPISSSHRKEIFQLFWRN
Description: Assessment of Antagonist Potency at B1 and B2 Receptors In Vitro by Measurement of Cytosolic Calcium Ion Concentration with a Plate Reader Fluorimeter in Cells Expressing Recombinant Human B1 or B2 Receptors
Chinese hamster ovary (CHO) cells stably expressing recombinant human B1 (CHO-B1, Euroscreen) or B2 (CHO-B2, Perkin-Elmer) receptors were cultured in Dulbecco's Modified Eagle's Medium (DMEM) containing 10% Fetal Calf Serum (FCS), 100 U/ml penicillin, 0.1 mg/ml streptomycin, 0.25 μg/ml amphotericin B, 1% Minimum Essential Medium Eagle (MEM), non essential amino acid solution, 600 μg/ml G418, 1% pyruvate (for the B2 cell line). Cells were kept at 37° C. in a humidified incubator in an atmosphere of 5% CO2/95% air and were passaged 1:4 three times a week. Cells were plated at 1.5-2.5×10^4 cell/well on standard 96-well microplates, measurements of cytosolic calcium ion concentration ([Ca^2+]i) were carried out 1-2 days after cell plating.
Measurements of [Ca^2+]i were carried out on CHO-B1 and CHO-B2 cells stably expressing human B1 and B2 receptors, respectively. Cells were grown in standard 96-well microplates and before the measurement were loaded with a fluorescent Ca^2+-sensitive dye, fluo-4/AM (2 μM): after removing the culture medium the dye was added to the cells (dissolved in assay buffer: 145 mM NaCl, 5 mM KCl, 2 mM MgCl2, 2 mM CaCl2, 10 mM HEPES, 20 mM D-glucose, 2 mM probenecid, 100 μl/well) and cells were incubated at 37° C. in a humidified incubator in an atmosphere of 5% CO2/95% air for 40-120 min. To stop dye loading cells were washed twice with assay buffer. After washing, various concentrations of the test compounds (diluted in extracellular medium from a DMSO stock solution, final DMSO concentration was <0.1%) or buffer were added to each well depending on the experimental setup. After incubation at 37° C. for 20-25 min. baseline and agonist-evoked changes of [Ca^2+]i were measured column by column with a plate reader fluorimeter (Fluoroskan Ascent, Labsystems). Excitation and detection of emission was carried out from the bottom of the plate. Filters used for Fluo-4: excitation filter—485 nm, emission filter—538 nm. The whole measurement process was performed at 37° C. and was controlled by custom software. Inhibitory potency of the test compounds was assessed by measuring the reduction in the agonist-evoked [Ca^2]i-elevation in the presence of different concentrations of the compounds. The agonists were LysDABK for CHO-B1, and bradykinin for CHO-B2 cells. Agonists were applied at an EC80 concentration, the EC80-values were derived from daily determined dose-response curves. Fluorescence data were expressed as ΔF/F (fluorescence change normalized to baseline). All treatments on a single plate were measured in multiple wells. Data from all wells with the same treatment were averaged and the average values were used for analysis. Inhibitory potency of a compound at a single concentration point was expressed as percent inhibition of the control agonist response. Sigmoidal concentration-inhibition curves were fitted to the data (derived from at least three independent experiments) and IC50-values were determined as the concentration that produces half of the maximal inhibition caused by the compound.

[2] = molecular target: T2, human recombinant bradykinin B1 receptor (Homo sapiens, UniProt P46663); test: Human recombinant bradykinin B1 receptor binding; conditions: radioligand [3H]-[Des-Arg10] Kallidin, CHO cell membranes; read-out: B1 binding
T2 construct: purchased Euroscreen ES-091; host or cells: CHO cells
T2 sequence (P46663 1-353): T1 sequence (P46663 1-353)
Description: 1. Human Recombinant Bradykinin B1 Receptor Binding
Binding assays were carried out on human recombinant bradykinin) receptors (expressed in CHO cells) according to the Euroscreen Technical Data Sheet (Cat.No.:ES-091). 20 μg protein/tube was incubated with [3,4-prolyl-3,4-^3H(N)]-[Des-Arg^10] Kallidin as radioligand. Non specific binding was determined in the presence of 10 μM Lys-des-Arg^9-Bradykinin. The final incubation volume was 250 μl. Samples were incubated for 15 min. at 25° C. then were rapidly vacuum filtered through GF/B filters presoaked for at least 1 h in 0.5% PEI. Radioactivity was determined by liquid scintillation spectroscopy.

Row | SMILES | IC50 [1] [µM] | Ki [2] [µM]
1 | N=C(N)NCc1ccc(CNC(=O)c2ccc(S(=O)(=O)Nc3ccccc3Oc3ccc(Br)cc3)cc2)cc1 [Example 23, 4-[2-(4-Bromo-phenoxy)-phenylsulfamoyl]-N-(4-guanidinomethyl-benzyl)-benzamide hydrochloride] | 0.1 to 0.5 | 0.02 to 0.1
2 | O=C(c1ccc(S(=O)(=O)Nc2ccccc2Oc2ccc(Cl)c(Cl)c2)cc1)N1CCN(CCCN2CCCCC2)CC1 [Example 87, N-[2-(3,4-Dichloro-phenoxy)-phenyl]-4-[4-(3-piperidin-1-yl-propyl)-piperazine-1-carbonyl]-benzenesulfonamide] | 0.1 to 0.5 | 0.1 to 0.5
3 | O=C(NCCc1ccc(C2=NCCN2)cc1)c1ccc(S(=O)(=O)Nc2ccccc2Oc2ccc(Cl)cc2Cl)cc1 [Example 2, 4-[2-(2,4-Dichloro-phenoxy)-phenylsulfamoyl]-N-{2-[4-(4,5-dihydro-1H-imidazol-2-yl)-phenyl]-ethyl}-benzamide trifluoroacetate] | < 0.02 | < 0.02
4 | O=C(NCCCCC1CCNCC1)c1ccc(S(=O)(=O)Nc2ccccc2Oc2ccc(F)cc2Cl)cc1 [Example 135, 4-[2-(2-Chloro-4-fluoro-phenoxy)-phenylsulfamoyl]-N-(4-piperidin-4-yl-butyl)-benzamide hydrochloride] | 0.02 to 0.1 | 0.02 to 0.1
5 | O=C(NCCC(=O)N1CCC(N2CCCCC2)CC1)c1ccc(S(=O)(=O)Nc2ccccc2Oc2ccc(Cl)cc2Cl)cc1 [Example 62, N-(3-[1,4′]Bipiperidinyl-1′-yl-3-oxo-propyl)-4-[2-(2,4-dichloro-phenoxy)-phenylsulfamoyl]-benzamide trifluoroacetate] | < 0.02 | < 0.02
6 | O=C(NCCCCC1CCNCC1)c1ccc(S(=O)(=O)Nc2ccccc2Oc2ccc(Br)cc2)cc1 [Example 101, 4-[2-(4-Bromo-phenoxy)-phenylsulfamoyl]-N-(4-piperidin-4-yl-butyl)-benzamide hydrochloride] | 0.02 to 0.1 | 0.02 to 0.1
7 | O=C(NCCCC1CCNCC1)c1ccc(S(=O)(=O)Nc2ccccc2Oc2ccc(Cl)cc2Cl)cc1 [Example 137, 4-[2-(2,4-Dichloro-phenoxy)-phenylsulfamoyl]-N-(3-piperidin-4-yl-propyl)-benzamide trifluoracetate] | 0.02 to 0.1 | 0.02 to 0.1
8 | O=C(NCCCN1CCC(N2CCCCC2)CC1)c1ccc(S(=O)(=O)Nc2cc(F)ccc2Oc2ccc(Br)cc2)cc1 [Example 102, N-(3-[1,4′]Bipiperidinyl-1′-yl-propyl)-4-[2-(4-bromo-phenoxy)-5-fluoro-phenylsulfamoyl]-benzamide] | < 0.02 | < 0.02
9 | O=C(NCCCN1CCC(N2CCCCC2)CC1)c1ccc(S(=O)(=O)Nc2ccccc2Oc2ccc(Br)cc2Cl)cc1 [Example 157, N-(3-[1,4′]Bipiperidinyl-1′-yl-propyl)-4-[2-(4-bromo-2-chloro-phenoxy)-phenylsulfamoyl]-benzamide] | < 0.02 | < 0.02
10 | O=C(NCCC1CCNCC1)c1ccc(S(=O)(=O)Nc2ccccc2Oc2ccc(Cl)cc2Cl)cc1 [Example 11, 4-[2-(2,4-Dichloro-phenoxy)-phenylsulfamoyl]-N-(2-piperidin-4-ylethyl)-benzamide trifluoroacetate] | 0.02 to 0.1 | 0.02 to 0.1
11 | O=C(NCCCN1CCC(N2CCCCC2)CC1)c1ccc(S(=O)(=O)Nc2ccccc2Oc2ccc(Cl)c(Cl)c2)cc1 [Example 5, N-(3-[1,4′]Bipiperidinyl-1′-yl-propyl)-4-[2-(3,4-dichloro-phenoxy)-phenylsulfamoyl]-benzamide] | < 0.02 | < 0.02
12 | O=C(NCCCN1CCCCC1)c1ccc(S(=O)(=O)Nc2ccccc2Oc2ccc(Cl)cc2Cl)cc1 [Example 76, 4-[2-(2,4-Dichloro-phenoxy)-phenylsulfamoyl]-N-(3-piperidin-1-yl-propyl)-benzamide] | 0.02 to 0.1 | 0.02 to 0.1
13 | O=C(Nc1ccc(N2CCC(N3CCCCC3)CC2)cc1)c1ccc(S(=O)(=O)Nc2ccccc2Oc2ccc(Cl)cc2Cl)cc1 [Example 8, N-(4-[1,4′]Bipiperidinyl-1′-yl-phenyl)-4-[2-(2,4-dichloro-phenoxy)-phenylsulfamoyl]-benzamide] | 0.02 to 0.1 | < 0.02
14 | O=C(NCCCCC1CCNCC1)c1ccc(S(=O)(=O)Nc2ccccc2Oc2ccc(Cl)cc2Cl)cc1 [Example 170, 4-[2-(2,4-Dichloro-phenoxy)-phenylsulfamoyl]-N-(4-piperidin-4-yl-butyl)-benzamide hydrochloride] | < 0.02 | < 0.02
15 | O=C(NCCN1CCN(Cc2ccccn2)CC1)c1ccc(S(=O)(=O)Nc2ccccc2Oc2ccc(Br)cc2)cc1 [Example 99, 4-[2-(4-Bromo-phenoxy)-phenylsulfamoyl]-N-[2-(4-pyridin-2-ylmethyl-piperazin-1-yl)-ethyl]-benzamide] | 0.02 to 0.1 | 0.02 to 0.1
16 | O=C(NCCc1ccc(C2=NCCN2)cc1)c1ccc(S(=O)(=O)Nc2ccccc2Oc2ccc(Br)cc2Cl)cc1 [Example 22, 4-[2-(4-Bromo-2-chloro-phenoxy)-phenylsulfamoyl]-N-{2-[4-(4,5-dihydro-1H-imidazol-2-yl)-phenyl]-ethyl}-benzamide] | < 0.02 | < 0.02
17 | Cc1cccc(N2CCN(CCNC(=O)c3ccc(S(=O)(=O)Nc4ccccc4Oc4ccc(Cl)cc4Cl)cc3)CC2)n1 [Example 36, 4-[2-(2,4-Dichloro-phenoxy)-phenylsulfamoyl]-N-{2-[4-(6-methyl-pyridin-2-yl)-piperazin-1-yl]-ethyl}-benzamide] | 0.02 to 0.1 | < 0.02
18 | COc1cc(Cl)ccc1Oc1ccccc1NS(=O)(=O)c1ccc(C(=O)NCCCN2CCC(N3CCCCC3)CC2)cc1 [Example 132, N-(3-[1,4′]Bipiperidinyl-1′-yl-propyl)-4-[2-(4-chloro-2-methoxy-phenoxy)-phenylsulfamoyl]-benzamide] | 0.02 to 0.1 | < 0.02
19 | O=C(N[C@H]1CC[C@H](CCN2CCCC2)CC1)c1ccc(S(=O)(=O)Nc2ccccc2Oc2ccc(Cl)c(Cl)c2)cc1 [Example 64, trans-4-[2-(3,4-Dichloro-phenoxy)-phenylsulfamoyl]-N-[4-(2-pyrrolidin-1-yl-ethyl)-cyclohexyl]-benzamide] | 0.02 to 0.1 | 0.02 to 0.1
20 | O=C(CCNC(=O)c1ccc(S(=O)(=O)Nc2ccccc2Oc2ccc(Cl)cc2Cl)cc1)NCCC1CCNCC1 [Example 56, 4-[2-(2,4-Dichloro-phenoxy)-phenylsulfamoyl]-N-[2-(2-piperidin-4-yl-ethylcarbamoyl)-ethyl]-benzamide hydrochloride] | 0.02 to 0.1 | < 0.02
21 | O=C(NCCCCC1CCNCC1)c1ccc(S(=O)(=O)Nc2ccccc2Oc2ccc(Br)cc2Cl)cc1 [Example 167, 4-[2-(4-Bromo-2-chloro-phenoxy)-phenylsulfamoyl]-N-(4-piperidin-4-yl-butyl)-benzamide hydrochloride] | 0.02 to 0.1 | 0.02 to 0.1
